Measured values: PMC11631053, “A receptor-based assay to study the sweet and bitter tastes of sweeteners and binary sweet blends: the SWEET project” (Chemical Senses, 2024)

Columns and labels:
TAS2R42 = molecular target: T1, TAS2R42 (Homo sapiens, UniProt Q7RTR8); assay: Calcium mobilization assay, HEK293T-Gα16gust44 cells expressing TAS2R42; details: maximal concentration tested: sucralose 100 mM, neotame 30 µM, Ace-K 300 mM, RebA 4 mM, RebM 4 mM, mogroside V 5 mM, erythritol 200 mM, D-allulose 500 mM, thaumatin 100 mM
T1 sequence (Q7RTR8 1-314): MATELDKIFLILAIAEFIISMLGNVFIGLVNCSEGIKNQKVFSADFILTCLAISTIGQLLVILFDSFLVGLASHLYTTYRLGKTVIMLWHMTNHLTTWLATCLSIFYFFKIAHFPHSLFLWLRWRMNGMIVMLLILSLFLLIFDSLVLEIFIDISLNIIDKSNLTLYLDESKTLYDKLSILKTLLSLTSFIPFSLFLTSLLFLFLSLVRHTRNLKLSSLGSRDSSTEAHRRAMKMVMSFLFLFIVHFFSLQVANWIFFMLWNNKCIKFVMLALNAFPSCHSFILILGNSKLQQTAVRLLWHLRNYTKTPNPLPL
Method: (§1) Different concentration ranges were tested depending on the injected sweet compound. […] All of the concentration-receptor combinations were measured in triplicate, and each experiment was repeated at least 3 times. The Ca^2+ change was expressed as a fractional change in fluorescent light intensity: ΔF/F = (F − F0)/F0, where F was the fluorescent light intensity at each point, and F0 was the value of fluorescent light emitted prior to stimulus application. To calculate dose–response relationships, the changes in fluorescence upon stimulus application were averaged, mock-subtracted and baseline-corrected. The resulting obtained dose–response data were adjusted by using a 4-parameter logistic equation. The half-maximal effective concentration (EC50) was calculated by using SigmaPlot software (Systat Software, San Jose, CA, USA) as described in supplemental Supplementary Figs. S1, S2, and S3.

TAS2R43 = molecular target: T2, TAS2R43 (Homo sapiens, UniProt P59537); assay: Calcium mobilization assay, HEK293T-Gα16gust44 cells expressing TAS2R43; details: for Response of TAS2R43: maximal concentration tested: sucralose 100 mM, neotame 30 µM, Ace-K 300 mM, RebA 4 mM, RebM 4 mM, mogroside V 5 mM, erythritol 200 mM, D-allulose 500 mM, thaumatin 100 mM
T2 sequence (P59537 1-309): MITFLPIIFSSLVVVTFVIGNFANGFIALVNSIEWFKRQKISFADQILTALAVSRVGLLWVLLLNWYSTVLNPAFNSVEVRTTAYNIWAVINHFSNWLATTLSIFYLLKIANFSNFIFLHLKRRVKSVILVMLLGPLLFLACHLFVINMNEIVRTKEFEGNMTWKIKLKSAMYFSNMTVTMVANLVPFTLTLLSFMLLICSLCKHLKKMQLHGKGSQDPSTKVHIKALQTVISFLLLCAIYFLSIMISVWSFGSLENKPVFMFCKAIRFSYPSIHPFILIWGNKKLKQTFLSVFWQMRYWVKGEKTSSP
Method: (§2) Different concentration ranges were tested depending on the injected sweet compound. […] All of the concentration-receptor combinations were measured in triplicate, and each experiment was repeated at least 3 times. The Ca^2+ change was expressed as a fractional change in fluorescent light intensity: ΔF/F = (F − F0)/F0, where F was the fluorescent light intensity at each point, and F0 was the value of fluorescent light emitted prior to stimulus application. To calculate dose–response relationships, the changes in fluorescence upon stimulus application were averaged, mock-subtracted and baseline-corrected. The resulting obtained dose–response data were adjusted by using a 4-parameter logistic equation.

TAS2R8 = molecular target: T3, TAS2R8 (Homo sapiens, UniProt Q9NYW2); assay: Calcium mobilization assay, HEK293T-Gα16gust44 cells expressing TAS2R8; details: maximal concentration tested: sucralose 100 mM, neotame 30 µM, Ace-K 300 mM, RebA 4 mM, RebM 4 mM, mogroside V 5 mM, erythritol 200 mM, D-allulose 500 mM, thaumatin 100 mM
T3 sequence (Q9NYW2 1-309): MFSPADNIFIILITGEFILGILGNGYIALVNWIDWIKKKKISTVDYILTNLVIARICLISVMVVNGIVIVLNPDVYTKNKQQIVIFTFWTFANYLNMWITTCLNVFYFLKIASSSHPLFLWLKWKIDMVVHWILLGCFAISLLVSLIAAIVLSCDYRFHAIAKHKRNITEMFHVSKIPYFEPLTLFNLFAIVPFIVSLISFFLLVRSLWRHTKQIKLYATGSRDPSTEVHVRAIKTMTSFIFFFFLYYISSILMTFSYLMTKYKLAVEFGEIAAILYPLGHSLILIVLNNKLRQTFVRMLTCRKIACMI
Method: as §1

TAS2R4 = molecular target: T4, TAS2R4 (Homo sapiens, UniProt Q9NYW5); assay: Calcium mobilization assay, HEK293T-Gα16gust44 cells expressing TAS2R4; details: maximal concentration tested: sucralose 100 mM, neotame 30 µM, Ace-K 300 mM, RebA 4 mM, RebM 4 mM, mogroside V 5 mM, erythritol 200 mM, D-allulose 500 mM, thaumatin 100 mM
T4 sequence (Q9NYW5 1-299): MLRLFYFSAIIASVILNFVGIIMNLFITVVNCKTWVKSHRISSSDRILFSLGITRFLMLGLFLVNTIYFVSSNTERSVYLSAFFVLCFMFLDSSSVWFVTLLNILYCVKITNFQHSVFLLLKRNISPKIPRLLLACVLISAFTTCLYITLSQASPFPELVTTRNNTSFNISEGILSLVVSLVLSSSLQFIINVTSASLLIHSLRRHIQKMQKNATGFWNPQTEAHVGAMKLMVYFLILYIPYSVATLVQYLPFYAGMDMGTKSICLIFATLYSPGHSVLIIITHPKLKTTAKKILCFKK
Method: as §1

TAS2R30 = molecular target: T5, TAS2R30 (Homo sapiens, UniProt P59541); assay: Calcium mobilization assay, HEK293T-Gα16gust44 cells expressing TAS2R30; details: for Response of TAS2R30: maximal concentration tested: sucralose 100 mM, neotame 30 µM, Ace-K 300 mM, RebA 4 mM, RebM 4 mM, mogroside V 5 mM, erythritol 200 mM, D-allulose 500 mM, thaumatin 100 mM
T5 sequence (P59541 1-319): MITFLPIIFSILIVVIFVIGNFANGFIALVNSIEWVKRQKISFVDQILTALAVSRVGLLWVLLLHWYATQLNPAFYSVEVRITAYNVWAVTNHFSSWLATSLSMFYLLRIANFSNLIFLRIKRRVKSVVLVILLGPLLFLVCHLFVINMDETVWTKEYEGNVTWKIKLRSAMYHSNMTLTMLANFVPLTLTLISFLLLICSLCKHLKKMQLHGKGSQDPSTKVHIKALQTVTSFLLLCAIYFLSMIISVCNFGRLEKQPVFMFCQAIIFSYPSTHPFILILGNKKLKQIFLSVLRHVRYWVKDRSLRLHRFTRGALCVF
Method: as §2

TAS2R19 = molecular target: T6, TAS2R19 (Homo sapiens, UniProt P59542); assay: Calcium mobilization assay, HEK293T-Gα16gust44 cells expressing TAS2R19; details: maximal concentration tested: sucralose 100 mM, neotame 30 µM, Ace-K 300 mM, RebA 4 mM, RebM 4 mM, mogroside V 5 mM, erythritol 200 mM, D-allulose 500 mM, thaumatin 100 mM
T6 sequence (P59542 1-299): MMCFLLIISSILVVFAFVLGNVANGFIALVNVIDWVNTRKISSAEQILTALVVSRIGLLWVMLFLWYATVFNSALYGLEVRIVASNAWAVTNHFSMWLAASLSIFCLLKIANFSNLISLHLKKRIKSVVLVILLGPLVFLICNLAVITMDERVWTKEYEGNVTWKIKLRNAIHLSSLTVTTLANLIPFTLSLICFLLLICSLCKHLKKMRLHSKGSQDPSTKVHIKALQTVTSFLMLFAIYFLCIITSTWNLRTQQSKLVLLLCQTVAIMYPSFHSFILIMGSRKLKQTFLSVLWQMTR
Method: as §2

TAS2R31 = molecular target: T7, TAS2R31 (Homo sapiens, UniProt P59538); assay: Calcium mobilization assay, HEK293T-Gα16gust44 cells expressing TAS2R31; details: maximal concentration tested: sucralose 100 mM, neotame 30 µM, Ace-K 300 mM, RebA 4 mM, RebM 4 mM, mogroside V 5 mM, erythritol 200 mM, D-allulose 500 mM, thaumatin 100 mM
T7 sequence (P59538 1-309): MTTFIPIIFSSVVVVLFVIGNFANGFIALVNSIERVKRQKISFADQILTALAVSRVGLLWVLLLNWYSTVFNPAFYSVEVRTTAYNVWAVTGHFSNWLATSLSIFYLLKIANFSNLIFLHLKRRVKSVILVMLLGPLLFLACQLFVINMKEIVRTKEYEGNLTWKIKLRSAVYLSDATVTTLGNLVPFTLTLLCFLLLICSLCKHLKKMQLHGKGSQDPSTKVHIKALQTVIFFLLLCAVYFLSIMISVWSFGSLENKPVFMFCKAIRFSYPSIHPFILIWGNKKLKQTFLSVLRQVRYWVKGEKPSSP
Method: as §2

Response of TAS2R42 (TAS2R42)	Response of TAS2R43 (TAS2R43)	Response of TAS2R8 (TAS2R8)	Response of TAS2R4 (TAS2R4)	Response of TAS2R30 (TAS2R30)	Response of TAS2R19 (TAS2R19)	Response of TAS2R31 (TAS2R31)	Compound	concentrations at which TAS2R43 was activated (TAS2R43)	concentrations at which TAS2R30 was activated (TAS2R30)
−	−	−	−	−	−	§^a	OC[C@H]1O[C@H](O[C@]2(CCl)O[C@H](CCl)[C@@H](O)[C@@H]2O)[C@H](O)[C@@H](O)[C@H]1Cl [Sucralose, sucralose]		
−	−	−	−	−	−	−	thaumatin		
−	−	−	−	−	−	−	C=C1C[C@@]23CC[C@H]4[C@@](C)(CCC[C@@]4(C)C(=O)O[C@@H]4O[C@H](CO)[C@@H](O)[C@H](O[C@@H]5O[C@H](CO)[C@@H](O)[C@H](O)[C@H]5O)[C@H]4O[C@@H]4O[C@H](CO)[C@@H](O)[C@H](O)[C@H]4O)[C@@H]2CC[C@]1(O[C@@H]1O[C@H](CO)[C@@H](O)[C@H](O[C@@H]2O[C@H](CO)[C@@H](O)[C@H](O)[C@H]2O)[C@H]1O[C@@H]1O[C@H](CO)[C@@H](O)[C@H](O)[C@H]1O)C3 [RebM, Rebaudioside M]		

The remaining lines, values behind:

Compound	Response of TAS2R42 (TAS2R42)	Response of TAS2R43 (TAS2R43)	Response of TAS2R8 (TAS2R8)	Response of TAS2R4 (TAS2R4)	Response of TAS2R30 (TAS2R30)	Response of TAS2R19 (TAS2R19)	Response of TAS2R31 (TAS2R31)	concentrations at which TAS2R43 was activated (TAS2R43)	concentrations at which TAS2R30 was activated (TAS2R30)
C[C@H](CC[C@@H](O[C@@H]1O[C@H](CO[C@@H]2O[C@H](CO)[C@@H](O)[C@H](O)[C@H]2O)[C@@H](O)[C@H](O)[C@H]1O[C@@H]1O[C@H](CO)[C@@H](O)[C@H](O)[C@H]1O)C(C)(C)O)[C@H]1CC[C@@]2(C)[C@@H]3CC=C4[C@@H](CC[C@H](O[C@@H]5O[C@H](CO[C@@H]6O[C@H](CO)[C@@H](O)[C@H](O)[C@H]6O)[C@@H](O)[C@H](O)[C@H]5O)C4(C)C)[C@]3(C)[C@H](O)C[C@]12C [Mogroside V, mogroside V]	−	−	−	−	−	−	−		
CC1=CC(=O)NS(=O)(=O)O1 [Ace-K, acesulfame-K]	−	§^b	−	−	−	−	#^b		
COC(=O)[C@H](Cc1ccccc1)NC(=O)[C@H](CC(=O)O)NCCC(C)(C)C [Neotame]	−	−	−	−	−	−	−		
O=C(CO)[C@H](O)[C@H](O)[C@H](O)CO [D-allulose]	+	+	−	−	+	+	−	> 300 mM	> 300 mM
OC[C@@H](O)[C@@H](O)CO [Erythritol, erythritol]	−	−	−	−	−	−	−		
